For two molecules, inhibition results are on record in ChEMBL document CHEMBL1149044, “Anthraquinones and a 10-Hydroxyanthrone from Phialophora alba” (1994).

Usually inhibition stands for the relative decrease from the control value, in per cent.

The subject of this experiment is Phellinus tremulae. As to the kind of experiment: Antifungal activity against Phellinus tremulae at 1 mg/mL. The class given is functional.

The molecule `COc1cc(C)cc2c1C(=O)c1c(O)cc(O)c(Cl)c1C2O` (configuration not stated) came in with an inhibition at 1000 µg/mL of 50%. The result for `COc1cc(C)cc2c1C(=O)c1c(O)cc(O)cc1C2=O` [1-O-METHYLEMODIN] reads 50%.
